From patent US4048167A, “N,N-disubstituted derivatives of 3-carboxamide or 3-thiocarboxamide-7-(3-chloro-2-propenyl)-1,3,5,7-tetraazabicyclo(3.3.1) nonane and preparation II” (The Dow Chemical Company, priority 1976, dated 1977)
Converted amounts (≈) assume the structure as drawn.

Assays:
Assay type in all cases: cell-based
B. subtilis = assay: agar Petri dish dilution test, B. subtilis; settings: Bacillus subtilis
S. aureus = assay: agar Petri dish dilution test, S. aureus; settings: Staphylococcus aureus
M. phlei = assay: agar Petri dish dilution test, M. phlei; settings: Mycolicibacterium phlei
mentagrophytes = assay: agar Petri dish dilution test, mentagrophytes
E. coli = assay: agar Petri dish dilution test, E. coli; settings: Escherichia coli
A. aerogenes = assay: agar Petri dish dilution test, A. aerogenes; settings: Klebsiella aerogenes
[1] = tested on: Pseudomas Species Str. 10; assay: agar Petri dish dilution test, Pseudomas Species Str. 10; settings: read-out: MIC, Ps

Compound	MIC (B. subtilis) [mg/L]	MIC (S. aureus) [mg/L]	MIC (M. phlei) [mg/L]	MIC (mentagrophytes) [mg/L]	MIC (E. coli) [mg/L]	MIC (A. aerogenes) [mg/L]	MIC [1] [mg/L]
CCN(CC)C(=O)N1CN2CN(C/C=C\Cl)CN(C2)C1 [Example 2 a.]	100 (≈ 331 µM)	500 (≈ 1660 µM)	500 (≈ 1660 µM)	100 (≈ 331 µM)	100 (≈ 331 µM)	100 (≈ 331 µM)	–
CN(C)C(=O)N1CN2CN(C/C=C\Cl)CN(C2)C1 [Example 1, N,N-Dimethyl-3-Carboxamide-7-cis-(3-Chloro-2-Propenyl)-1,3,5,7-Tetraazabicyclo(3.3.1)Nonane]	100 (≈ 365 µM)	500 (≈ 1830 µM)	500 (≈ 1830 µM)	100 (≈ 365 µM)	500 (≈ 1830 µM)	100 (≈ 365 µM)	500 (≈ 1830 µM)
CN(C(=O)N1CN2CN(C/C=C\Cl)CN(C2)C1)c1ccccc1 [Example 2 c.]	500 (≈ 1490 µM)	500 (≈ 1490 µM)	500 (≈ 1490 µM)	100 (≈ 298 µM)	500 (≈ 1490 µM)	500 (≈ 1490 µM)	500 (≈ 1490 µM)
CN(C)C(=S)N1CN2CN(C/C=C\Cl)CN(C2)C1 [Example 2 d.]	100 (≈ 345 µM)	500 (≈ 1730 µM)	500 (≈ 1730 µM)	100 (≈ 345 µM)	500 (≈ 1730 µM)	500 (≈ 1730 µM)	500 (≈ 1730 µM)
O=C(N1CN2CN(C/C=C\Cl)CN(C2)C1)N(c1ccccc1)c1ccccc1 [Example 2 b.]	500 (≈ 1260 µM)	500 (≈ 1260 µM)	500 (≈ 1260 µM)	100 (≈ 251 µM)	500 (≈ 1260 µM)	500 (≈ 1260 µM)	500 (≈ 1260 µM)
